Assay results reported in patent US10561710B2, “Goblet cell replacement therapy” (University of Pittsburgh—Of the Commonwealth System of …, priority 2014, dated 2020).

Assays:
Type in all cases: in vivo, New Zealand white rabbits
bleb tissue [1] = test: Histological grading of blebs after modified trabeculectomy (H&E, Masson's trichrome); details: rabbit modified trabeculectomy, intraoperative topical application, six week study, vs untreated
Method: (§1) In the following studies, modified trabeculectomy was performed in New Zealand white rabbits using a 22 gauge angiocatheter inserted into the anterior chamber. Rabbit eyes were either untreated or treated with IP-10FL (SEQ ID NO: 12) or IP-10p (SEQ ID NO: 13) by intraoperative topical application. Untreated and injured bleb formation was confirmed and assessed weekly after the procedure. All animals were euthanized at the end of the six week study.
To evaluate histological differences in treated and untreated blebs, the globes were embedded in paraffin and stained with hematoxylin and eosin (H&E) and Masson's trichrome. A-semi quantitative histological grading score was used to assess cellularity, collagen deposition (fibrosis) and inflammation to compare findings between the four animal groups (uninjured, control (injured), IP-10 full length treated and IP-10p treated).

bleb tissue [2] = test: Collagen in bleb tissue, Masson's trichrome staining with METAMORPH analysis; details: rabbit modified trabeculectomy, vs untreated
Method: FIGS. 3A-3B: Decreased fibrosis in treated blebs. […] Collagen was quantified using Masson's trichrome staining. […] Original magnifications ×100.
as §1
Collagen was quantified using Masson's trichrome staining.

bleb tissue [3] = test: Neovascularization in bleb tissue by H&E staining (number of capillaries); details: rabbit modified trabeculectomy, low-power field in center of injured area, vs untreated
Method: FIGS. 2A-2B: Arrested angiogenesis in treated blebs. Neovascularization in the bleb tissue was assessed using H&E staining. (FIG. 2A) Quantitation of the number of capillaries, as determined by morphology, with a low-power field in the center of the injured area is shown in the graph. The data was derived from two independent experiments of at least three globes with each evaluated in three random low-power fields (shown are mean±SD, *P<0.05). […] Original magnifications ×100.
as §1
Next, angiogenesis was evaluated in treated and untreated blebs. Neovascularization in the bleb tissue was assessed by H&E staining.

[4] = test system: conjunctival goblet cells; test: Goblet cell number in treated blebs after modified trabeculectomy; details: rabbit modified trabeculectomy, average cell number per high-powered field, six central bleb cross-sections, vs untreated
Method: FIGS. 4A-4B: Increased goblet cells in treated blebs. […] (FIG. 4A) Goblet cell number was calculated using the average cell number per high-powered field from six consecutive central bleb cross-sections of each specimen. (FIG. 4B) Representative images (Masson's trichrome stain) show the number of conjunctival goblet cells (asterisks).
as §1
Goblet cells were also evaluated in treated and untreated blebs.

[5] = test system: conjunctival goblet cells; test: Goblet cells in blebs treated with MMC, IP-10p or IP-10p as perioperative rescue at MMC surgery; details: rabbit modified trabeculectomy; MMC alone, or MMC then IP-10p as perioperative rescue
Method: FIGS. 5A-5B: Goblet cells in treated and untreated blebs. (FIG. 5A) Goblet cells were evaluated in treated and untreated blebs. Bleb tissue was treated with MMC alone, IP-10p alone, or IP-10p as a perioperative “rescue” treatment at the time of MMC surgery.
Modified trabeculectomy was performed in New Zealand white rabbits using a 22 gauge angiocatheter inserted into the anterior chamber.

Row | Substance | inflammation and fibrosis (semi-quantitative histological grading score; collagen content, elastic fiber thickness and orientation) (bleb tissue [1]) | collagen deposition in bleb tissue (bleb tissue [2]) | number of capillaries present in blebs (bleb tissue [3]) | number of goblet cells in bleb tissue [4] | goblet cells / goblet cell density in bleb tissue [5]
1 | IP-10FL: Human IP-10 variant (IP-10FL), SEQ ID NO: 12; CXCR3 activator | reduction in inflammation and fibrosis | significantly less collagen | significantly reduced the number of capillaries | increase in the number of goblet cells | 
2 | IP-10p: Human IP-10 fragment/variant, SEQ ID NO: 13, PESKAIKNLLKAVSKEMSKRSP | reduction in inflammation and fibrosis | significantly less collagen | significantly reduced the number of capillaries | increase in the number of goblet cells | 
3 | mitomycin C [MMC] |  |  |  |  | marked decrease in goblet cells
